Test system: chymotrypsin
Assay type: biochemical
Conditions: pH 8.0

Oc1cccnc1 [3-hydroxypyridine]
kinetics of the inhibition of chymotrypsin by AEBSF: not changed

— patent publication US6235509A (priority 1996, dated 2001)
